Measured values published in publication PMC9367663 (Journal of Enzyme Inhibition and Medicinal Chemistry, 2022).
“Also recorded” adds a separate entry of the source. Read-outs that look alike come from different tables or passages of the source.

Columns and labels:
[1] = target: cathepsin L (Homo sapiens, UniProt P07711); experiment: biochemical; type: biochemical
[2] = target: SARS-CoV-2 PL^Pro (Severe acute respiratory syndrome coronavirus 2, UniProt P0DTD1); experiment: biochemical; type: biochemical
[3] = system: SARS-CoV-2 viral isolate; type: cell-based; conditions: 30 µM
[4] = UV–vis stability in biologically relevant media; type: physicochemical; conditions: 50 mM acetate buffer pH 5.5 (1% DMSO for a and 1a), 0 and 30 min
Procedure: The same buffers as for enzymatic assays were used for UV–vis stability testing (50 mM acetate buffer, pH = 5.5, and 50 mM HEPES buffer, pH = 7.4). Pyrithione a and zinc pyrithione 1a were dissolved in DMSO. Mixtures of a dissolved compound in DMSO (1%) and buffer (99%) were filtered through Minisart® Regenerated Cellulose Syringe Filter (25 mm, 0.2 µm). Ruthenium complex 2a was dissolved directly in buffers. After preparation, the spectra were immediately recorded on UV–vis spectrometer with an additional recording after 30 min.

[5] = 1H NMR stability in biologically relevant media; type: physicochemical; conditions: buffers in D2O (1% DMSO-d6 for a and 1a), t = 0 and 30 min
Procedure: Acetate and HEPES buffers were prepared in D2O. […] Such solutions were further filtered through Minisart® Regenerated Cellulose Syringe Filter (25 mm, 0.2 µm).

[6] = system: human lung tissue (HLT) cells
[7] = in vitro; conditions: human
[8] = pH 5.5, read-out: IC50 cathepsin L
[9] = 100 µM ligand, averages of three measurements

cathepsin L, sequence (P07711 114-333): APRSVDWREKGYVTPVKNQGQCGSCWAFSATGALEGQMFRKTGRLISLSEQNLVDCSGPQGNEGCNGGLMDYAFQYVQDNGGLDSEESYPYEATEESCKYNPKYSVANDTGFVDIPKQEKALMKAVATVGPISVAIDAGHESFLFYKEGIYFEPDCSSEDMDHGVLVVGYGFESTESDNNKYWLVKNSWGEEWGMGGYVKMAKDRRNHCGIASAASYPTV

Q: With Zn-(4Me-pth) complex [1c] as the compound, how does the IC50 [1, 8] read?
A: The IC50 was 410 ± 80 nM.

Q: And the IC50 ([2]; pH 7.4, read-out: IC50 PL^Pro)?
A: Its IC50 is 540 ± 250 nM.

Q: For COc1cccn(O)c1=S [h], which “vi/v0 at 100 µM, Cathepsin L (relative reaction rate)” value [1, 9] is on record?
A: The value was 1.17.

Q: And the “vi/v0 at 100 µM, PLPro (relative reaction rate)” value [2, 9]?
A: The value was 0.60.

Q: What does the source list for On1ccc2ccccc2c1=S [f, N-hydroxyisoquinoline-1-thione]?
A: vi/v0 at 100 µM, Cathepsin L (relative reaction rate) [1, 9]: 0.65; vi/v0 at 100 µM, PLPro (relative reaction rate) [2, 9]: 0.66

Q: What does the source list for Cc1cccn(O)c1=S [b]?
A: vi/v0 at 100 µM, Cathepsin L (relative reaction rate) [1, 9]: 1.05; vi/v0 at 100 µM, PLPro (relative reaction rate) [2]: 0.50

Q: Which IC50 ([1]; 50 mM acetate buffer pH 5.5, 2 µM Z-LR-AMC, 5 µM DTT, 25 °C, mean ± S.E.M. (N = 3), read-out: IC50 cathepsin L) does the source give for “Zn-(N-hydroxyisoquinoline-1-thione) complex [1f]” here?
A: Its IC50 is 140 ± 50 nM.

Q: What about the “extent of PL^Pro inhibition (in words)” value [2] of the same compound?
A: The value was “cannot fully inhibit the enzyme”.

Q: For Cc1ccn(O)c(=S)c1 [c], which “vi/v0 at 100 µM, Cathepsin L (relative reaction rate)” value [1, 9] is on record?
A: The value was 1.04.

Q: What about the “vi/v0 at 100 µM, PLPro (relative reaction rate)” value [2, 9] of the same compound?
A: The value was 0.60.

Q: Which IC50 [1, 8] does the source give for Zn-(6Me-pth) complex [1e] here?
A: Its IC50 is 240 ± 50 nM.

Q: And the IC50 ([2]; pH 7.4, read-out: IC50 PL^Pro)?
A: Its IC50 is 260 ± 180 nM.

Q: Which “vi/v0 at 100 µM, Cathepsin L (relative reaction rate)” value [1, 9] does the source give for Cc1cccc(=S)n1O [e] here?
A: Its value is 1.15.

Q: What about the “vi/v0 at 100 µM, PLPro (relative reaction rate)” value [2] of the same compound?
A: The value was 0.82.

Q: Which results are given for On1c(=S)ccc2ccccc21 [g]?
A: vi/v0 at 100 µM, Cathepsin L (relative reaction rate) [1, 9]: 0.53; vi/v0 at 100 µM, PLPro (relative reaction rate) [2, 9]: 0.28

Q: What does the source list for Cc1ccc(=S)n(O)c1 [d]?
A: vi/v0 at 100 µM, Cathepsin L (relative reaction rate) [1, 9]: 1.01; vi/v0 at 100 µM, PLPro (relative reaction rate) [2]: 0.77

Q: With On1ccccc1=S [a, 1-hydroxy-2(1H)-pyridinethione] as the compound, how does the IC50 [1] read?
A: The IC50 was over 500000 nM.

Q: What about the “vi/v0 at 100 µM, Cathepsin L (relative reaction rate)” value [1] of the same compound?
A: The value was 1.09.

Q: And the IC50 [2]?
A: The IC50 was over 500000 nM.

Q: And the “vi/v0 at 100 µM, PLPro (relative reaction rate)” value [2]?
A: The value was 0.88.

Q: What about the “inhibition of SARS-CoV-2 replication” value [3] of the same compound?
A: The value was “no effect; also recorded: did not inhibit”.

Q: What about the “UV–vis stability in acetate buffer” value [4] of the same compound?
A: The value was “remain stable”.

Q: What about the “1H NMR stability in acetate and HEPES buffers” value [5] of the same compound?
A: The value was “no structural changes”.

Q: And the cell survival [6]?
A: The cell survival was 72.91%.

Q: And the CC50 [7]?
A: Its CC50 is over 100000 nM.

Q: And the viability [7]?
A: The viability was 51.9 to 55.5%.

Q: With Zn-(5Me-pth) complex [1d] as the compound, how does the IC50 [1, 8] read?
A: The IC50 was 440 ± 120 nM.

Q: And the IC50 ([2]; pH 7.4, read-out: IC50 PL^Pro)?
A: Its IC50 is 220 ± 80 nM.
